Results from patent US20110092488A1, “Quninoline Methanol Compounds for the Treatment and Prevention of Parasitic Infections” (priority 2005, published 2011).
Read-outs that look alike come from different tables or passages of the source.

Tests used:
yeast = settings: Ison and Davis, 1969; cited from earlier work
[1] = by 'injection'; Ison and Davis, 1969; cited from earlier work
[2] = tested on: Balb/c 3T3 mouse fibroblast cells; experiment: 3T3 neutral red uptake (NRU) phototoxicity test; format: cell-based
Source text: A pharmacophore for phototoxicity was developed to be used as an in silico screening tool to determine the minimum phototoxic concentration for a number of AAQMS (WR069878 and those indicated in Table 5). Minimum phototoxic concentration in a yeast assay for a number of AAQMS, as per Ison et al.; Phototoxicity of Quinoline methanols and other drugs in mice and yeast; J. Invest. Dermatol. (52)193-198 (1969) were used to generate a three-dimensional pharmacophore model using the HypoGen algorithm of the […]® (Accelrys software Inc.) methodology as per Bhattacharjee et al.; A 3D QSAR pharmacophore model and quantum chemical structure—activity analysis of chloroquine(CQ)-resistance reversal; J. Chem Inf. Comput Sci. (42) 1212-1220 (2002), and Dow et al.; as discussed in Antimicrob Agents Chemother. (48)2624-2632 (2004), cited above, both Bhattacharjee et al. and Dow et al, incorporated herein, by reference. The structures of clinically used quinoline methanols were mapped onto the pharmacophores and estimated values for minimum phototoxic concentration were generated. The 3T3 neutral red uptake (NRU) phototoxicity test, conducted by MB Research Laboratories (Spinnerstown, Pa.), was used to identify quinoline methanols (WR069878 and those in Table 5) that have the potential to exert in vivo phototoxicity after systemic application. Briefly, the central 60 wells of two 96-well plates per AAQM were seeded with Balb/c 3T3 mouse fibroblast cells and maintained in culture for 24 hrs. These plates were then pre-incubated with a range of eight different concentrations of test compound (six wells per concentration) for one hour. Next, one plate was treated with a UVA dose of 5 J/cm2 by irradiating for 50 min at 1.7 mW/cm2, whereas the other plate remained non-treated and in the dark. Next, the treatment medium was replaced with culture medium and cell viability was determined after 24 hrs by measuring neutral red uptake for 3 hrs. Finally, the 3T3 NRU Phototox Prediction Software (version 2.0, ZEBET) was used to calculate EC50 values and Photo-Irritant Factors (PIF) for each compound. […]

[3] = tested on: Plasmodium falciparum malaria; settings: P. falciparum malaria, South East Asia; WR030090: field trials; cited from earlier work
[4] = mouse, in vivo
[5] = Aotus, 10 mg/kg/day oral x7
Experimental: (§1) The P. berghei-mouse efficacy data were obtained from the WRAIR chemical information system (subcutaneous testing) or from recent tests conducted at AFRIMS, Thailand or at the University of Miami using a modified version of the Thompson test. Groups of five mice were inoculated through i.p. injection on day 0 (usually with 1×106 P. berghei-parasitized erythrocytes). The drugs in Table 1 were administered either subcutaneously or orally for three days (usually on days 3-5) at doses of 1.25-160 mg/kg in two to four fold increments. Cure was defined as survival until day 60 (subcutaneous dosing) or day 31 post-treatment (oral dosing). […] The minimum effective dose was the lowest dose level that cured at least one of five mice. The Aotus studies were performed according to Obaldia; Detection of Klebsiella pnuumoniae antibodies in Aotus l. lemurinus (Panamanian owl monkey) using an enzyme linked immunosorbent assay (ELIA) test; Lab Anim (25)133-141 (1991) and Obaldia et al., WR 238605, chloroquine, and their combinations as blood schizonticides against a chloroquine-resistant strain of Plasmodium vivax in Aotus monkeys; Am. J. Trop. Med. Hyg. (56)508-510 (1997), which are incorporated by reference, herein. Groups of two Aotus lemurinus 6 lemurinus of the karyotype VIII or IX (27) male and female monkeys with weights ranging from 742-970 g were inoculated with 5×10^6 parasites of either the FVO strain of P. falciparum or the AMRU1 strain of P. vivax. Both of these strains are chloroquine resistant. […] Monkeys were examined and thick Giemsa-stained blood smears were prepared and enumerated daily (17) to monitor the course of infection. […] In some instances, a high dose of the test drug was used to retreat monkeys instead of the mefloquine rescue. Monkeys are considered cured if they are parasite free 90 days post treatment. […] Plasma samples were taken from the monkeys in some studies for quantification of metabolites. Additional blood samples were taken as appropriate for complete blood counts and serum chemistry. Research was conducted in compliance with the Animal Welfare Act and other federal statutes and regulations relating to animals and experiments involving animals and adheres to principles stated in the Guide for the Care and Use of Laboratory Animals, NRC Publication, 1996 edition (34).

P. falciparum TM91C235 = experiment: In vitro antimalarial activity against P. falciparum TM91C235; format: cell-based, Plasmodium falciparum
Experimental: The in vitro activities of AAQMs against P. falciparum strains W2, D6, TM91C235 and TM90C2A were evaluated using the method of Desjardins et al. as modified by Milhous et al. W2 is chloroquine resistant and mefloquine sensitive, D6 is chloroquine sensitive but naturally less susceptible to mefloquine, TM91C235 is resistant to mefloquine, chloroquine and pyrimethamine as is TM90C2A, however this latter parasite is a two pfmdr1 copy strain. We routinely run mefloquine in this screen as a control to ensure assay validity.

[6] = tested on: FVO strain of P. falciparum; experiment: Efficacy in P. falciparum-challenged Aotus monkeys; format: in vivo, Plasmodium falciparum in Aotus lemurinus lemurinus
Experimental: as §1

SMILES	Yeast minimum phototoxic concentration (yeast)	Minimum phototoxic dose in mice [1]	Photo Irritant Factor (PIF) ([2]; UVA 5 J/cm2, potential to be phototoxic if PIF > 5.0)	Cure rate [3]	Phototoxicity in mice [4]	Mean peak concentration [5]	Plasma conc on day 1 (ng/ml) 2 h ([5]; day 1, 2 h)	Plasma conc on day 1 (ng/ml) 24 h ([5]; day 1, 24 h)	Plasma conc. on day 7 (ng/ml) 2 h ([5]; day 7, 2 h)	Plasma conc. on day 7 (ng/ml) 24 h ([5]; day 7, 24 h)	Activity against P. falciparum TM91C235 (IC50 in ng/ml) (P. falciparum TM91C235)	TM91C235 IC90 (P. falciparum TM91C235; Table 2)	Photo Irritant Factor (PIF) [2]	Outcome in Aotus, earlier studies ([6]; 10 mg/kg/day x7, WRAIR archival data)	Outcome in Aotus ([6]; 10 mg/kg/day x7 oral, groups of two, Cure = parasite free 90 days, R = average day of recrudescence, Failure = rescued with mefloquine)
OC(c1cc(-c2ccccc2)nc2c(Cl)cc(Cl)cc12)C1CCCCN1 (stereo not drawn) [WR007930]	31 mg/ml^c	Minimum phototoxic dose is 7 mg/kg	29.0	–	–	–	–	–	–	–	–	–	–	–	–
CCCCN(CCCC)CC(O)c1cc(-c2ccc(Cl)c(Cl)c2)nc2c(Cl)cc(Cl)cc12 (stereo not drawn) [WR030090]	–	–	–	at least 88%	are phototoxic^d	307 ng/mL	597 ng/mL	11 ng/mL	16 ng/mL	5.6 ng/mL	11 ng/mL	52 ng/mL	105.7	cleared but did not cure infections	Failure
